Results as given in patent US20230181496A1, “USE OF NOREPINEPHRINE OR BETA-ADRENERGIC RECEPTOR INHIBITOR IN PREPARATION OF MEDICAMENT FOR NERVE INJURY REPAIR IN DIABETES” (Qingdao Eye Hospital of Shandong First Medical University …, priority 2021, published 2023).
“Also recorded” adds a separate entry of the source.

How the values were obtained:
diabetic mice [1] = experiment: Corneal nerve regeneration (βIII-tubulin staining, confocal microscope); type: in vivo
Source text: Animals were STZ-induced type I diabetic mice (constructedas describedin the prior art: Lingling, Yang, Guohu, Di, Xia, & Qi, et al. (2014). Substance P promotes diabetic corneal epithelial wound healing through molecular mechanisms mediated via the neurokinin-1 receptor. Diabetes, 63(12), 4262-4274.) and their normal controls. Laboratory mice had no corneal defect, neovascularization, or conjunctival injury.
Cornea of diabetic mice and their control mice were subjected to βIII-tubulin staining (as described in the following reference: Wang X, Li W, Zhou Q, et al. MANF Promotes Diabetic Corneal Epithelial Wound Healing and Nerve Regeneration by Attenuating Hyperglycemia-Induced Endoplasmic Reticulum Stress. 2020.), and nerve regeneration was observed under a confocal microscope.
The cornea of diabetic mice and their control mice were stained with βIII-tubulin, and nerve regeneration was observed under a confocal microscope.

[2] = test system: Trigeminal ganglion neurons; experiment: Growth of trigeminal ganglion neurons cultured with TKE2 culture supernatants (βIII-Tubulin staining, Neuron J length); type: cell-based, mice; conditions: supernatant added to neurons for 24 h
Procedure: Trigeminal ganglion neurons isolated from normal mice were mixed with a mixture of 40 U/mL papain, 3 mg/mL collagenase, and 4.7 mg/mL dispase II, digested and subjected to gradient centrifugation with percoll (upper layer: 12.5% percoll; lower layer 28% percoll), and isolated to obtain neurons (as describedin the prior art: Malin, S. A., Davis, B. M. & Molliver, D. C. Production of dissociated sensory neuron cultures and considerations for their use in studying neuronal function and plasticity. Nat Protoc 2, 152-160 (2007).). The neurons obtained were cultured on a laminin-coated glass slide overnight. TKE2 culture supernatants under different conditions were added to the neurons and cultured for 24 h; after βIII-Tubulin staining, the length of neuron was analyzed and calculated by Neuron J (after the relative length was analyzed by the software, it was calculated with the control as 1.0).

diabetic mice [3] = experiment: Corneal epithelial repair after 2 mm corneal epithelium scraping (sodium fluorescein staining); type: in vivo
diabetic mice [4] = experiment: Expression of NGF and GDNF in corneal epithelium (mRNA detection and immunofluorescence staining); type: in vivo; conditions: diabetic mice dropped in eyes with β2-adrenergic receptor antagonist
Source text: mRNA was extracted from the corneal epithelia of the diabetic mice and the diabetic mice treated with β2-adrenergic receptor antagonist; meanwhile, expression levels of NGF and GDNF in epithelial cells were detected according to the example, and expression levels of NGF and GDNF in epithelia of the diabetic mice and the diabetic mice dropped in eyes with β2-adrenergic receptor antagonist were detected by immunofluorescence staining.

TKE2 cells = experiment: Expression of neurotrophic factors NGF and GDNF in TKE2 cells (qPCR and ELISA); type: cell-based, mouse; conditions: 24 h
Procedure: TKE2 cells cultured under different conditions were collected for mRNA extraction, and their culture supernatants were collected; after qPCR and ELISA, expression levels of neurotrophic factors NGF and GDNF were obtained, respectively. Herein, primers for the detection of expression of NGF and GDNF by qPCR were as follows: The reaction system was as follows: 2×SYBR: 5 μL; upstream primer: 0.3 μL; downstream primer: 0.3 μL; RNase-free water: 2.4 μL; cDNA: 2 μL; total: 10 μL; The reaction program was as follows: PCR initial denaturation: 95° C. for 2 min; two-step program: 40 cycles of 95° C. for 5 s and 60° C. for 10 s. The ELISA was conducted by ELISA Kit for mouse NGF (USCN Life Science Inc. Wuhan, China) and mouse GDNF(Abcam, ab171178, Shanghai, China).

diabetic mice [5] = experiment: Corneal sensitivity after corneal epithelium scraping (Cochet-Bonnet aesthesiometer); type: in vivo

NCCc1cc(O)c(O)cc1O [6-OHDA, 6-hydroxydopamine]
corneal nerve regeneration (diabetic mice [1]; Example 8: 100 mg/kg intraperitoneally, four consecutive days, 100 mg/kg): promoting effect; also recorded: effectively promoted the corneal nerve regeneration

Cc1ccc(OCC(O)C(C)NC(C)C)c2c1CCC2 (centres unmarked) [ICI 118,551]
reversal of nerve growth inhibition caused by elevated norepinephrine ([2]; TKE2 cells treated with 10 μM NE + 50 μM antagonist for 24 h): better reverse nerve growth inhibition | diabetic corneal epithelial repair (diabetic mice [3]; 10-100 μM eye drops, 5 μL/eye, 4 times/day, two consecutive days, 0, 24, 36, 48 h after modeling): significantly promote the diabetic corneal epithelial repair | diabetic corneal epithelial repair (diabetic mice [3]; Example 8: 100 mg/kg intraperitoneally, four consecutive days, scraped at 7th day, 0, 36, 48 h after modeling): significantly promote the diabetic corneal epithelial repair | expression of NGF and GDNF in corneal epithelium (diabetic mice [4]): significantly upregulated the expression of NGF and GDNF | reversal of downregulated expression of NGF and GDNF caused by NE (TKE2 cells; 10 μM NE + 50 μM antagonist): reverse the downregulated expression of NGF and GDNF | corneal nerve regeneration (diabetic mice [1]; diabetic mice treated with β2-adrenergic receptor antagonist eye drops): promoting effect; also recorded: effectively promote corneal nerve regeneration | corneal sensitivity (diabetic mice [5]; 10-100 μM eye drops, 5 μL/eye, 4 times/day, two consecutive days): significantly promote | corneal sensitivity (diabetic mice [5]; Example 8: 100 mg/kg intraperitoneally, four consecutive days, scraped at 7th day): recover the sensitivity

NC[C@H](O)c1ccc(O)c(O)c1 [norepinephrine]
nerve growth (length of neuron) ([2]; TKE2 cells treated with 10 μM NE for 24 h): nerve growth inhibition | expression of NGF and GDNF (TKE2 cells; 10 μM NE): downregulated expression of NGF and GDNF
